Assay results: ChEMBL document CHEMBL2074120, “Hepatic uptake of bilirubin and its conjugates by the human organic anion transporter SLC21A6” (J Biol Chem, 2001)

Experiments:
Assay type in all cases: functional, cell-based
[1] = target: T1, Solute carrier organic anion transporter family member 1B1 (Homo sapiens, UniProt Q9Y6L6); assay: (§1) TP_TRANSPORTER: uptake in OATP-C-expressing HEK293 cells
T1 sequence (Q9Y6L6 whole entry): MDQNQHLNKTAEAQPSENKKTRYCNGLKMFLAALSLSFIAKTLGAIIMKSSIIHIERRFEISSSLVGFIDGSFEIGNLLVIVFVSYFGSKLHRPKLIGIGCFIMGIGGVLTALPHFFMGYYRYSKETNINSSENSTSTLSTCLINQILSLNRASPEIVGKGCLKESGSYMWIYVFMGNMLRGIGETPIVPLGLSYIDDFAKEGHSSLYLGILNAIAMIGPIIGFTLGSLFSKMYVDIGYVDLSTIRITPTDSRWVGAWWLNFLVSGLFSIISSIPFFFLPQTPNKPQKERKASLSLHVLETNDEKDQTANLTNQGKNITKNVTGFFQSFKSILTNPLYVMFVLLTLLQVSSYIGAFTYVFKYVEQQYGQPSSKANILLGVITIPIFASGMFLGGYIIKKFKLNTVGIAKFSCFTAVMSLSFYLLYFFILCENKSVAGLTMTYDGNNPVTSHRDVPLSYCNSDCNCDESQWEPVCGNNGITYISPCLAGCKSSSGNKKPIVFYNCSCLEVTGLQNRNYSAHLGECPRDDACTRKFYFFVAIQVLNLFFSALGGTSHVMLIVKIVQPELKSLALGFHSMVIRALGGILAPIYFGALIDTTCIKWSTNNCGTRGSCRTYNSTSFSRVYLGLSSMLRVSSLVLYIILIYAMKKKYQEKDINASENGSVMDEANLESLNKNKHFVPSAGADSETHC

[2] = target: T1, Solute carrier organic anion transporter family member 1B1; assay: TP_TRANSPORTER: inhibition of E217betaG uptake (E217betaG: 2 uM, Rifamycin SV: 50 uM) in OATP-C-expressing HEK293 cells; settings: hek293, 50 µM
[3] = target: T2, Solute carrier organic anion transporter family member 1B3 (Homo sapiens, UniProt Q9NPD5); assay: TP_TRANSPORTER: inhibition of E217betaG uptake (E217betaG: 2 uM, Rifamycin SV: 50 uM) in OATP8-expressing HEK293 cells; settings: hek293, 50 µM
T2 sequence (Q9NPD5 whole entry): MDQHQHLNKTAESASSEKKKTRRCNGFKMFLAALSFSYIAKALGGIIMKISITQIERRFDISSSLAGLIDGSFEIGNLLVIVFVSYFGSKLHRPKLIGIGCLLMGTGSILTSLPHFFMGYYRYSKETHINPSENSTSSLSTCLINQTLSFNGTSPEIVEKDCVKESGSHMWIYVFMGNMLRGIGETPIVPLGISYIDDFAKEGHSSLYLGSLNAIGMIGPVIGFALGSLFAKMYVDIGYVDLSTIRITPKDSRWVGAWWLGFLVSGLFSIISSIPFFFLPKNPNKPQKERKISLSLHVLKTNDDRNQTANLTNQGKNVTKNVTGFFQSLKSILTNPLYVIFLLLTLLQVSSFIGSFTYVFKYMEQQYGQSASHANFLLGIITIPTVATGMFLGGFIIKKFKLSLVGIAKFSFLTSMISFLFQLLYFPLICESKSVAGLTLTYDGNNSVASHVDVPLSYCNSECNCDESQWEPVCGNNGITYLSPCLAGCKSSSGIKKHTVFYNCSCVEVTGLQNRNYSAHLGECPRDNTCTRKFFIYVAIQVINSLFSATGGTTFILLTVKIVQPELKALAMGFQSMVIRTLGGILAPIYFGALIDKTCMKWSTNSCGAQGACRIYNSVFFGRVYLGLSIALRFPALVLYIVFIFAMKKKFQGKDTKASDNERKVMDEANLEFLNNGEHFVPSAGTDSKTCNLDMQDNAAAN

OATP8 (OATP1B3, SLCO1B3) = target: T3, OATP8 (OATP1B3, SLCO1B3) (Homo sapiens, UniProt Q9NPD5); assay: (§2) TP_TRANSPORTER: uptake in OATP8-expressing HEK293 cells; settings: HEK293 cells expressing OATP8
T3 sequence (Q9NPD5 whole entry): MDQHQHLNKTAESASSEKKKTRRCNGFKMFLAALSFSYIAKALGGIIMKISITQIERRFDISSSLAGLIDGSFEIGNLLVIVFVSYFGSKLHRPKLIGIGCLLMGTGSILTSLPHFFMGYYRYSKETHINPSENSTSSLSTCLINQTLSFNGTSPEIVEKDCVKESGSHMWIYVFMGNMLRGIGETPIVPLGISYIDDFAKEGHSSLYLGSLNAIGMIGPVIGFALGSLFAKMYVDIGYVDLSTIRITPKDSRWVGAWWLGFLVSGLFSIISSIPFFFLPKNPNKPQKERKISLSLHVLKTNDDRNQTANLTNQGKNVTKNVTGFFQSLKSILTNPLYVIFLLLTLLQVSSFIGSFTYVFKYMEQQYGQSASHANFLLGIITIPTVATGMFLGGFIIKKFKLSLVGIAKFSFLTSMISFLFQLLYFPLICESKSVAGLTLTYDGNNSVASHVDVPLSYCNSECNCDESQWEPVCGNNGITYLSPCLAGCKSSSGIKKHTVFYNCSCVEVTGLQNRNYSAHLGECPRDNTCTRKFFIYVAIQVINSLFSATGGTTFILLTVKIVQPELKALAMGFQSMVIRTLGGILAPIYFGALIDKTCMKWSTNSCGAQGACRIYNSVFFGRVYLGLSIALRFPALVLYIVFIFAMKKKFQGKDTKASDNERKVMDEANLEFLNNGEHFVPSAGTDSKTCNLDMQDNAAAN

[4] = target: T2, Solute carrier organic anion transporter family member 1B3; assay: TP_TRANSPORTER: inhibition of E217betaG uptake (E217betaG: 2 uM, ICG: 10 uM) in OATP8-expressing HEK293 cells; settings: hek293, 10 µM
[5] = target: T1, Solute carrier organic anion transporter family member 1B1; assay: TP_TRANSPORTER: inhibition of E217betaG uptake (E217betaG: 2 uM, ICG: 10 uM) in OATP-C-expressing HEK293 cells; settings: hek293, 10 µM
[6] = target: T1, Solute carrier organic anion transporter family member 1B1; assay: TP_TRANSPORTER: inhibition of E217betaG uptake (E217betaG: 2 uM, Rifampicin: 75 uM) in OATP-C-expressing HEK293 cells; settings: hek293, 75 µM
[7] = target: T2, Solute carrier organic anion transporter family member 1B3; assay: TP_TRANSPORTER: inhibition of E217betaG uptake (E217betaG: 2 uM, Rifampicin: 75 uM) in OATP8-expressing HEK293 cells; settings: hek293, 75 µM
[8] = target: T2, Solute carrier organic anion transporter family member 1B3; assay: as §2; settings: hek293
[9] = target: T1, Solute carrier organic anion transporter family member 1B1; assay: TP_TRANSPORTER: inhibition of Bilirubin uptake (Bilirubin: 10 uM, BSP: 5 uM) in OATP-C-expressing HEK293 cells; settings: hek293, 5 µM
[10] = substrate: O=C1OC(c2ccc(O)c(S(=O)(=O)O)c2)(c2ccc(O)c(S(=O)(=O)O)c2)c2c(Br)c(Br)c(Br)c(Br)c21; assay: as §1
[11] = substrate: [H][C@@]12CC=C3C[C@@H](OS(=O)(=O)O)CC[C@]3(C)[C@@]1([H])CC[C@]1(C)C(=O)CC[C@@]21[H]; assay: as §1
[12] = substrate: C[C@]12CC[C@@H]3c4ccc(OS(=O)(=O)O)cc4CC[C@H]3[C@@H]1CCC2=O; assay: as §1
[13] = substrate: C=CC1=C(C)/C(=C/c2[nH]c(Cc3[nH]c(/C=C4\NC(=O)C(C)=C4C=C)c(C)c3CCC(=O)O[C@@H]3OC(C(=O)O)[C@@H](O)C(O)C3O)c(CCC(=O)O)c2C)NC1=O; assay: as §1
[14] = substrate: C=CC1=C(C)/C(=C/c2[nH]c(Cc3[nH]c(/C=C4\NC(=O)C(C)=C4C=C)c(C)c3CCC(=O)O[C@@H]3O[C@@H](C(=O)O)[C@H](O)[C@@H](O)[C@@H]3O)c(CCC(=O)O[C@@H]3O[C@H](C(=O)O)[C@H](O)[C@H](O)[C@@H]3O)c2C)NC1=O; assay: as §1

C=CC1=C(C)/C(=C/c2[nH]c(Cc3[nH]c(/C=C4\NC(=O)C(C)=C4C=C)c(C)c3CCC(=O)O)c(CCC(=O)O)c2C)NC1=O [BILIRUBIN]
Activity [1]: substrate [+]

CO[C@H]1/C=C/O[C@@]2(C)Oc3c(C)c(O)c4c(O)c(cc(O)c4c3C2=O)NC(=O)/C(C)=C\C=C\[C@H](C)[C@H](O)[C@@H](C)[C@@H](O)[C@@H](C)[C@H](OC(C)=O)[C@@H]1C [RIFAMYCIN]
Activity [2]: inhibitor [(at a rough estimate) 20 % of control]
Activity [3]: inhibitor [(at a rough estimate) 35 % of control]

C[C@]12CC[C@H](OS(=O)(=O)O)CC1=CC[C@@H]1[C@@H]2CC[C@]2(C)C(=O)CC[C@@H]12 [PRASTERONE SULFURIC ACID]
Km (OATP8 (OATP1B3, SLCO1B3)): > 30 µM

CC1(C)C(/C=C/C=C/C=C/C=C2/N(CCCCS(=O)(=O)[O-])c3ccc4ccccc4c3C2(C)C)=[N+](CCCCS(=O)(=O)[O-])c2ccc3ccccc3c21.[Na+] [INDOCYANINE GREEN]
Activity [4]: is not an inhibitor [-]
Activity [5]: inhibitor [(at a rough estimate) 5 % of control]

CO[C@H]1/C=C/O[C@@]2(C)Oc3c(C)c(O)c4c(O)c(c(/C=N/N5CCN(C)CC5)c(O)c4c3C2=O)NC(=O)/C(C)=C\C=C\[C@H](C)[C@H](O)[C@@H](C)[C@@H](O)[C@@H](C)[C@H](OC(C)=O)[C@@H]1C [RIFAMPIN]
Activity [6]: inhibitor [(at a rough estimate) 20 % of control]
Activity [7]: inhibitor [(at a rough estimate) 10 % of control]

C=CC1=C(C)/C(=C/c2[nH]c(Cc3[nH]c(/C=C4\NC(=O)C(C)=C4C=C)c(C)c3CCC(=O)O[C@@H]3O[C@@H](C(=O)O)[C@H](O)[C@@H](O)[C@@H]3O)c(CCC(=O)O[C@@H]3O[C@H](C(=O)O)[C@H](O)[C@H](O)[C@@H]3O)c2C)NC1=O
Activity [8]: is not a substrate [-]

O=C1OC(c2ccc(O)c(S(=O)(=O)[O-])c2)(c2ccc(O)c(S(=O)(=O)[O-])c2)c2c(Br)c(Br)c(Br)c(Br)c21.[Na+].[Na+] [SULFOBROMOPHTHALEIN SODIUM]
Activity [9]: inhibitor [(at a rough estimate) 15 % of control]

C[C@]12CC[C@@H]3c4ccc(OS(=O)(=O)O)cc4CC[C@H]3[C@@H]1CCC2=O [ESTRONE SULFURIC ACID]
Activity [8]: is not a substrate [-]

C=CC1=C(C)/C(=C/c2[nH]c(Cc3[nH]c(/C=C4\NC(=O)C(C)=C4C=C)c(C)c3CCC(=O)O[C@@H]3OC(C(=O)O)[C@@H](O)C(O)C3O)c(CCC(=O)O)c2C)NC1=O (some centres not stated) [BILIRUBIN MONOGLUCURONIDE]
Km (OATP8 (OATP1B3, SLCO1B3)): 0.5 µM

B1: Solute carrier organic anion transporter family member 1B1 (Homo sapiens) (protein)
chain: MDQNQHLNKTAEAQPSENKKTRYCNGLKMFLAALSLSFIAKTLGAIIMKSSIIHIERRFEISSSLVGFIDGSFEIGNLLVIVFVSYFGSKLHRPKLIGIGCFIMGIGGVLTALPHFFMGYYRYSKETNINSSENSTSTLSTCLINQILSLNRASPEIVGKGCLKESGSYMWIYVFMGNMLRGIGETPIVPLGLSYIDDFAKEGHSSLYLGILNAIAMIGPIIGFTLGSLFSKMYVDIGYVDLSTIRITPTDSRWVGAWWLNFLVSGLFSIISSIPFFFLPQTPNKPQKERKASLSLHVLETNDEKDQTANLTNQGKNITKNVTGFFQSFKSILTNPLYVMFVLLTLLQVSSYIGAFTYVFKYVEQQYGQPSSKANILLGVITIPIFASGMFLGGYIIKKFKLNTVGIAKFSCFTAVMSLSFYLLYFFILCENKSVAGLTMTYDGNNPVTSHRDVPLSYCNSDCNCDESQWEPVCGNNGITYISPCLAGCKSSSGNKKPIVFYNCSCLEVTGLQNRNYSAHLGECPRDDACTRKFYFFVAIQVLNLFFSALGGTSHVMLIVKIVQPELKSLALGFHSMVIRALGGILAPIYFGALIDTTCIKWSTNNCGTRGSCRTYNSTSFSRVYLGLSSMLRVSSLVLYIILIYAMKKKYQEKDINASENGSVMDEANLESLNKNKHFVPSAGADSETHC
Km [10]: 0.14 µM
Km [11]: 21.5 µM
Km [12]: 12.5 µM
Km [13]: 0.1 µM
Km [14]: 0.28 µM
